What was measured:
[1] = tested on: MCF-7 breast cancer cells; assay: WST-1 based proliferation assay, MCF-7; format: cell-based, human; conditions: MCF-7 (ER+, PIK3CA mutation); WST-1 absorbance 450 nm, days 1-5; compound A′ 50/500 nM, compound B 1600/800 Bq/ml
Experimental: (§1) The effects of PI3K inhibitor compound A′ and compound B in MCF-7 and 4T1 breast cancer cells and PC-3 and LNCaP prostate cancer cells were investigated in vitro as single agent and in combination. The effects were studied by measuring cell proliferation and apoptosis. Compound B and the reference inhibitor doxorubicin were added at day 0. The PI3K inhibitors were added at day −1 (24 hours before addition of Alpharadin) and at day 4. The following two concentrations of the inhibitors and two concentrations of radium 223 in 4 replicates were tested:
(§2) The effects on cell proliferation were studied using a WST-1 based proliferation assay and the effects on apoptosis were studied in parallel plates by measuring caspase 3/7 activity. The measurements were performed at 4 different time points, days 1, 2, 3 and 5. Caspase activity was normalized to the cell number obtained with the WST-1 assay in parallel plates.
(§3) (A) The results are shown as Absorbance (450 nm) measured in the WST-1 proliferation assay (MEAN). (B) The results are shown as Caspase 3/7/WST-1 values (MEAN). […] (B) The effects of PI3K inhibitor compound A′ and Radium 223 on MCF-7 cell caspase 3/7 activity at days 2. The results are shown as Caspase 3/7/WST-1 values (MEAN+SEM).

4T1 breast cancer cells = assay: WST-1 based proliferation assay, 4T1; format: cell-based, mouse
Experimental: as §1, §2
(§4) The results are shown as Absorbance (450 nm) measured in the WST-1 proliferation assay (MEAN).

[2] = tested on: PC-3 prostate cancer cells; assay: WST-1 based proliferation assay, PC-3; format: cell-based, human; conditions: PC3 (AR-negative, PTEN loss); WST-1 absorbance 450 nm, days 1-5; compound A′ 50/500 nM, compound B 1600/800 Bq/ml
Experimental: as §1, §2, §4

[3] = tested on: MCF-7 breast cancer cells; assay: Apoptosis by caspase 3/7 activity, MCF-7; format: cell-based, human; conditions: day 2, caspase activity normalized to WST-1 cell number
Experimental: as §1, §2, §3

[4] = tested on: LNCaP prostate cancer cells; assay: WST-1 based proliferation assay, LNCaP; format: cell-based, human
Experimental: as §1, §2
(A) The results are shown as Absorbance (450 nm) measured in the WST-1 proliferation assay (MEAN).

CRPC and bone metastases = conditions: Phase 2 studies; cited from earlier work
[5] = single doses up to 250 kBq per kg body weight; cited from earlier work
[6] = tested on: CRPC (Castration Resistant Prostate Cancer) and bone metastases; conditions: cited from earlier work
[7] = phase 1 and 2 studies; patients with bone metastases; cited from earlier work
[8] = LNCaP (AR-positive, PTEN loss), WST-1 absorbance 450 nm, days 1-5
[9] = WST-1 absorbance 450 nm, days 1-5, compound A′ 100/1000 nM, compound B 1600/800 Bq/ml
[10] = ALSYMPCA trial, patients with CRPC and bone metastases

SMILES: COc1c(OCCCN2CCOCC2)ccc2c1N=C(NC(=O)c1cnc(N)nc1)N1CCN=C21.Cl.Cl [compound A′, 2-amino-N-[7-methoxy-8-(3-morpholin-4-ylpropoxy)-2,3-dihydroimidazo[1,2-c]quinazolin-5-yl]pyrimidine-5-carboxamide dihydrochloride]
- inhibition of tumor cell proliferation [1]: potent anti-proliferative activity
- inhibition of tumor cell proliferation (4T1 breast cancer cells; lower (100 nM) dose): only moderate inhibition of tumor cell proliferation
- inhibition of tumor cell proliferation [2]: better anti-proliferactive activity
- apoptosis / tumor cell death induction (caspase 3/7 / WST-1) [3]: only at high dose can induce apoptosis
- inhibition of tumor cell proliferation [4, 8]: strong anti-proliferative effects

SMILES: [Cl][223Ra][Cl] [compound B, radium-223 dichloride]
- inhibition of tumor cell proliferation [1]: only slight inhibition of tumor cell proliferation
- inhibition of tumor cell proliferation (4T1 breast cancer cells; [9]): only moderate inhibition of tumor cell proliferation
- inhibition of tumor cell proliferation (4T1 breast cancer cells; higher dose): strong anti-proliferative effects
- inhibition of tumor cell proliferation [2]: moderate inhibition of tumor cell proliferation
- apoptosis / tumor cell death induction (caspase 3/7 / WST-1) [3]: could not induce tumor cell death
- inhibition of tumor cell proliferation ([4]; LNCaP, high dose (1600 Bq/mL)): effective
- pain and disease-related biomarkers (bone ALP, PSA) (CRPC and bone metastases): reduces pain, improves disease-related biomarkers
- cases of grade 3 neutropenia [5]: ⅕
- observed adverse reactions [5]: diarrhea and reversible myelosuppression
- median survival longer than placebo [6, 10]: 2.8 months
- reduction in risk of death compared with placebo [6, 10]: 30.5%
- time to first skeletal-related event ([6]; ALSYMPCA trial, versus placebo): significantly prolonged
- median overall survival ([6]; Phase III clinical trials): Significant increase in median overall survival
- safety profile [7]: favorable safety profile, with minimal myelotoxicity

SMILES: COc1cccc2c1C(=O)c1c(O)c3c(c(O)c1C2=O)C[C@@](O)(C(=O)CO)C[C@@H]3O[C@H]1C[C@H](N)[C@H](O)[C@H](C)O1 [doxorubicin]
- inhibition of tumor cell proliferation [1]: inhibited proliferation
- inhibition of tumor cell proliferation (4T1 breast cancer cells; [9]): inhibited proliferation
- inhibition of tumor cell proliferation [2]: inhibited proliferation
- inhibition of tumor cell proliferation [4, 8]: inhibited proliferation
